Measurements reported in patent US20210236476A1, “METHODS OF TREATING CANCER WITH SMALL MOLECULE PD-L1 INHIBITORS” (CHEMOCENTRYX, INC., priority 2018, published 2021).
“Also recorded” adds a separate entry of the source.

Key:
[1] = molecular target: T1, human PD-L1 / human PD-1 interaction (Homo sapiens, UniProt Q9NZQ7); experiment: ELISA of PD-1/PD-L1 interaction; assay type: binding; conditions: FIG. 1, stated collectively for the assays
T1 construct: purchased R&D (PD-L1); ACRO Biosystems (PD-1, biotin)
How it was run: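 Plates coated with 1 μg/mL human PD-L1 and blocked with BSA; serially diluted (1:5) compounds plus biotinylated human PD-1 (0.3 μg/mL) incubated 1 h at 37° C. Bound PD-1 detected with streptavidin-HRP/TMB, absorbance at 450 nm.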

[2] = molecular target: recombinant PD-L1 proteins (dimerization) (Homo sapiens, UniProt Q9NZQ7); experiment: dimerization ELISA assay; assay type: binding; conditions: FIG. 1B
Protocol: The activity of Compound 1.041 was assessed with an ELISA assay assessing the direct binding of recombinant PD-1 and PD-L1 proteins (FIG. 1A), a dimerization ELISA assay assessing the direct binding/dimerization of recombinant PD-L1 proteins (FIG. 1B), a cell based assay measuring the downstream signaling following the interaction of PD-1 and PD-L1 using a Luciferase reporter assay with cell lines overexpressing PD-1 and PD-L1 (FIG. 1C), and a mixed lymphocyte reaction assay measuring the functional outcome of upregulation of IFNg secretion, using allogenic primary human immune cells (FIG. 1D). Briefly, the mixed lymophocyte reaction assay was performed as follows: Dendritic cells and CD4+T Cells from unmatched donors were cultured together for 5 days in 96 well-flat bottom plates. Test compound was added as indicated at starting concentration of 1 μM with 1:4 dilutions with DMSO. Supernatants were harvested after 5 days of incubation and detection of human IFNg was performed by ELISA.

human PBMCs = experiment: T-Cell Exhaustion assay (SEB); assay type: cell-based; conditions: human PBMCs stimulated with 100ng/mL SEB for three days; FIG. 2A
hCD11C+hCD3- cells = experiment: PD-L1 Surface Expression Assay (FACS); assay type: cell-based, human; conditions: 16 hours, FIG. 2C
Protocol: Briefly, this assay was performed as follows: Cells were seeded in 12 well plates. Test compounds or antibodies were added for 16 hours at different concentrations. Cells were washed and stained with anti-human PD-L1, anti-human CD11C and anti-human CD3 for 20 minutes at RT before performing FACS analysis. Matching isotype was used as a control.

MDA-MB-231 cells = experiment: flow cytometry of PD-L1 surface staining with acid wash; assay type: cell-based, human; conditions: FIG. 3
Protocol: To further investigate the possibility that Compound 1.041 reduces PD-L1 surface expression, flow cytometry analysis was formed on MDA-MB-231 cells after PD-L1 surface staining. An acid-wash protocol (cells were washed 3 times (5 minutes with shaking) with cold acid wash buffer (DMEM containing 0.2% BSA and adjusted to a 3.5 pH) followed by 3 washes (5 minutes with shaking) with ice cold PBS 1X) was used to confirm that differences in PD-L1 cell surface staining was not due to tested article interfering with detection antibody binding.

[3] = tested on: A375 human melanoma cells; experiment: prophylactic dosing, A375 melanoma/PBMC co-implantation model; assay type: in vivo, NOD/SCID mice; conditions: Compound 1.041 30mg/kg bid, anti-hPD-L1 5 mg/kg i.p.
From the text: (§1) Co-crystallized human PD-1/PD-L1 provided structural information from which we developed a number of small molecule checkpoint inhibitors. Active compounds were first profiled by an ELISA assay measuring inhibition of the PD-1/PD-L1 interaction, followed by functional cell-based reporter and mixed lymphocyte reaction (MLR) assays. PD-1/PD-L1 inhibitory compounds thus identified were further selected for in vivo model testing.
As briefly described in Example 1, the prophylactic activity of Compound 1.041 was tested using immunodeficientp NOD/SCID mice (NOD.CB17-Prkdc^scid/NCrHsd) where A375 human melanoma cells were co-implanted along with human peripheral blood mononuclear cells (PBMCs). The mice were broken into 8 groups (n =10 each group): +/−PBMCs+Vehicle; +/−PBMCs+Compound 1.041; +/−PBMCs+Isotype antibody; and +/−PBMCs+anti-hPD-L1. Anti-hPD-L1 and isotype matched control antibody were injected i.p. at 5 mg/kg on day 1, 5, 9, 13, and 17. Compound 1.041 (30mg/kg) and vehicle dose (1% HPMC) p.i. twice daily (bid) starting on day 1.

[4] = tested on: A375 human melanoma cells; experiment: therapeutic dosing, A375 melanoma/PBMC co-implantation model; assay type: in vivo, NOD/SCID mice; conditions: established A375 tumors co-injected with human PBMCs; Compound 1.041 30mg/kg bid, anti-hPD-L1 5 mg/kg i.p., from day 28
From the text: as §1
As briefly described in Example 1 the therapeutic activity of Compound 1.041 was tested using immunodeficient NOD/SCID mice (NOD.CB17-Prkdc^scid/NCrHsd) where A375 human melanoma cells were co-implanted along with human peripheral blood mononuclear cells (PBMCs). The mice were broken into 4 groups (n=7 each group): +PBMCs+Vehicle; +PBMCs+Compound 1.041; +PBMCs +Isotype antibody; and +PBMCs+anti-hPD-L1. Anti-hPD-L1 and isotype matched control antibody were injected i.p. at 5 mg/kg on day 28, 32, 36, 40, and 44. Compound 1.041 (30mg/kg) and vehicle dose (1% HPMC) p.i. twice daily (bid) starting on day 28.

[5] = tested on: human T-cells in A375 tumors; experiment: tumor microenvironment analysis by flow cytometry (therapeutic dosing study); assay type: in vivo, NOD/SCID mice; conditions: compared to vehicle
Protocol: The tumor microenvironement of vehicle and Compound 1.041 treatments from the above experiment were further explored by dissecting, mincing and digested with collagenase D the tumors from relevant mice for analysis by flow cytometry. Briefly, this assay was performed as follows: Excised tumors were finely chopped with a blade and digested for 60 minutes at 37° C. in MSS 1X containing 2mg/ml of collagenase D and 1U/ml of DNAse I. Single cells were washed and resuspended in FACS buffer (PBS 1X with 10% FBS and 0.1% azide) containing the following monoclonal antibodies (hCD4 in FITC, PD-L1 in PE, CD3 in PercP-Cy5.5, CD45 in PE-Cy7, PD-1 in APC, CD8a in APC-Cy7, CD69 in Pacific Blue and LIVE/DEAD fixable Aqua stain). Isotype-matched controls were used as negative controls. Flow cytometry data were acquired with a FACSCanto II (BD Biosciences, San Jose, Calif.) cytometer and analyzed using FlowJO. […] The flow cytometer was gated on live cells singlets, hCD45^+ and hCD3^+ cells.

Sequence of recombinant PD-L1 proteins (dimerization) (Q9NZQ7 19-239 limits assumed): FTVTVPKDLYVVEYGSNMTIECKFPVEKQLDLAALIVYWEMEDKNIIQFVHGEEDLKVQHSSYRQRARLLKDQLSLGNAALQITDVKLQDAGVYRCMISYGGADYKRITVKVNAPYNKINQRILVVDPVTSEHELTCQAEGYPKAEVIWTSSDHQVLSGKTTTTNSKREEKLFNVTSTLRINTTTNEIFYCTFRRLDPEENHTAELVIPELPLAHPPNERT
T1 sequence (Q9NZQ7 19-239 limits assumed): as above

C[C@@](CO)(NCc1cc(Cl)c(O[C@H]2CCc3c(-c4cccc(OCCCN5CC(O)C5)c4Cl)cccc32)cc1OCc1cncc(C#N)c1)C(=O)O [Compound 1.041, (S)-2-((5-chloro-4-(((S)-4(2-chloro-3-(3-(3-hydroxyazetidin-1-yl)propoxy)phenyl)-2,3-dihydro-1H-inden-1-yl)oxy)-2-((5-cyanopyridin-3-yl)methoxy)benzyl)amino)-3-hydroxy-2-methylpropanoic acid]
blocking of PD-1/PD-L1 interaction [1]: highly potent and blocks PD-1/PD-L1 interaction
induction of hPD-L1 dimerization [2]: induction of hPD-L1 dimerization
reversal of T cell exhaustion phenotype (IFN-g induction by SEB) (human PBMCs): reversed T cell exhaustion phenotype; also recorded: reverses T-Cell exhaustion phenotype
PD-L1 surface expression (hCD11C+hCD3- cells): significantly reduced PD-L1 surface expression
PD-L1 surface staining (MDA-MB-231 cells): reduced PD-L1 surface staining intensive; also recorded: PD-L1 expression decreases
tumor growth ([3]; A375 cells + co-injected hPBMCs, from day 1): reduced tumor growth in vivo to a similar extent as the positive control anti-human PD-L1 antibody; also recorded: inhibited tumor growth
tumor growth ([3]; A375 cells alone (no hPBMCs)): no effect on A375 tumor growth
relative tumor growth [4]: reduced tumor growth in vivo to a similar extent as the positive control anti-human PD-L1 antibody; also recorded: significant inhibitory effect
PD-1 expression (mean fluorescence intensity) ([5]; human CD8+ T-cells from treated mice, FIG. 10): reduction in PD-1 expression
percentage of hCD8+ T-Cells in contrast to hCD4+ T-Cells ([5]; tumors, FIG. 9A-B): increases the percentage of hCH8^+ T-cells relative to hCH4^+ T-cells
ratio of hCD8+/hCD4+ T-cells ([5]; tumors, FIG. 9C): significantly higher CD8^+ T-Cell/CD4^+ T-cell ratio
